Measured values taken from patent US8305585B2, “Fiber-optic assay apparatus based on phase-shift interferometry” (Pall Corporation, priority 2003, dated 2012).

Legend:
[1] = Sequential binding test on biotin-derivatized sensor tip; conditions: 50 μg/ml in PBS, 9 minutes; FIG. 6
Source text: The two-layer configuration on the tip of an optic fiber is used for this test. The thickness of the first Ta2O5 layer is 25 nm and the thickness of the second SiO2 layer is 770 nm. The fiber was purchased from Ocean Optics (Dunedin, Fla.). It was manually cut into segments that are 40 mm long. Both ends of these segments were polished to standard mirror surface quality. The polishing method used here was exactly the same as those for optical lenses and mirrors. One surface of these fiber segments was outsourced to an optical coating house for Ta2O5 layer and SiO2 layer. This vendor employed an ion-beam assisted physical vapor deposition (IAPVD) coater made by […] is a commonly used coating technique for anti-reflection and optical filters. The experimental steps included the following (all steps are performed at room temperature unless otherwise noted): The fiber tip was coated with a polymer monolayer derivatized with biotin. The polymer monolayer was prepared using a biotinylated lipid (custom). This lipid was using to form a lipid monolayer on the surface of water solution. The monolayer was cross linked using UV light for 15minutes. Clean, dry fibers were then brought in contact with the floating thin film and the biotin polymer was adsorbed onto the fiber tip. The fibers were then dryed at 60° C. for 1 hour. […]

anti-Lewis Y antibody = assay: Negative control: binding to immobilized irrelevant antibody; conditions: 200 μg/mL biotin
Protocol: Another negative control was carried out using an irrelevant antibody (anti-Lewis Y antibody from Calbiochem, San Diego Calif.; cat #434636) immobilized in an identical fashion to the anti-biotin antibody above. This immobilized antibody was exposed to a solution of 200 μg/mL biotin.

[2] = tested on: mouse anti-biotin antibody; assay: Small molecule binding to immobilized anti-biotin antibody on NHS-ester activated tip; conditions: biotin 200 μg/mL, sucrose 2 mg/mL in PBS; FIG. 10
Protocol: This example illustrates the binding of a low molecular weight molecule binding to an immobilized high molecular weight molecule. […] The tip was rinsed with PBS for 2 minutes. Following the PBS rinse, the tip was quenched with an aqueous solution of 100 μM ethanolamine pH 8.5 (Sigma-Aldrich Chemical Company, St Louis, Mo.; cat #E9508) for 5 minutes and then was rinsed again in PBS for 2 minutes.
Controls using a solution of sucrose (Sigma-Aldrich Chemical Company, St Louis, Mo.; cat #S8501) (2 mg/mL) and PBS were carried out on the second and the third fibers to determine baseline noise.

| Compound | binding to immobilized biotin (7th order valley phase shift) [1] | binding to irrelevant antibody (anti-Lewis Y antibody) | change in optical thickness on exposure (binding) [2] |
| --- | --- | --- | --- |
| streptavidin: streptavidin (Pierce Biotechnology, cat #21122) | binding | – | – |
| O=C(O)CCCC[C@@H]1SC[C@@H]2NC(=O)N[C@@H]21 [biotin] | – | lack of biotin binding | increase in optical thickness |
| OC[C@H]1O[C@@](CO)(O[C@H]2O[C@H](CO)[C@@H](O)[C@H](O)[C@H]2O)[C@@H](O)[C@@H]1O [sucrose] | – | – | no detectable increase over baseline |
